# Measurements reported in patent publication US7501410B2, “Methods of inhibiting BTK and SYK protein kinases” (Roche Palo Alto LLC, priority 2006, dated 2009).
# Several values for one entry are separate records, joined by “and”; a condition that tells them apart may be missing. Identical values can stand only once. Like-named read-outs stand apart in the source and are kept apart here.
# Tests used:
# [1] = molecular target: T1, Bruton's Tyrosine Kinase (Btk) (Homo sapiens, UniProt Q06187); test: Determination of IC50 of Bruton's Tyrosine Kinase (Btk) inhibition, 33P filtration assay; type: biochemical; details: His-tagged full-length Btk, 100 μM ATP
# T1 construct: 5-10 nM Btk enzyme (His-tagged, full-length); His tag
# Source text: Determination of IC50 of Bruton's Tyrosine Kinase (Btk) Inhibition
# The assay is a capture of radioactive ^33P phosphorylated product through filtration. The interactions of Btk, biotinylated SH2 peptide substrate (Src homology), and ATP lead to phosphorylation of the peptide substrate. Biotinylated product is bound streptavidin sepharose beads. All bound, radiolabeled products are detected by scintillation counter.
# Plates assayed are 96-well polypropylene (Greiner) and 96-well 1.2 μm hydrophilic PVDF filter plates (Millipore). Concentrations reported here are final assay concentrations: 10-100 μM compounds in DMSO (Burdick and Jackson), 5-10 nM Btk enzyme (His-tagged, full-length), 30 μM peptide substrate (Biotin-Aca-[…]-NH2), 100 μM ATP (Sigma), 8 mM imidazole (Sigma, pH 7.2), 8 mM glycerol-2-phosphate (Sigma), 200 μM EGTA (Roche Diagnostics), 1 mM MnCl2 (Sigma), 20 mM MgCl2 (Sigma), 0.1 mg/ml BSA (Sigma), 2 mM DTT (Sigma), 1 μCi ^33P ATP (Amersham), 20% streptavidin sepharose beads (Amersham), 50 mM EDTA (Gibco), 2 M NaCl (Gibco), 2 M NaCl w/1% phosphoric acid (Gibco), microscint-20 (Perkin Elmer).
# IC50 determinations are calculated from 10 data points per compound utilizing data produced from a standard 96-well plate assay template. One control compound and seven unknown inhibitors were tested on each plate and each plate was run twice. Typically, compounds were diluted in half-log starting at 100 μM and ending at 3 nM. The control compound was staurosporine. Background was counted in the absence of peptide substrate. Total activity was determined in the presence of peptide substrate. The following protocol was used to determine BTK inhibition.
# 1) Sample preparation: The test compounds were diluted at half-log increments in assay buffer (imidazole, glycerol-2-phosphate, EGTA, MnCl2, MgCl2, BSA).
# 2) Bead preparation • a.) rinse beads by centrifuging at 500 g • b.) reconstitute the beads with PBS and EDTA to produce a 20% bead slurry
# 3) Pre-incubate reaction mix without substrate (assay buffer, DTT, ATP, ^33P ATP) and mix with substrate (assay buffer, DTT, ATP, ^33P ATP, peptide substrate) 30° C. for 15 min.
# 4) To start assay, pre-incubate 10 μL BTK in enzyme buffer (imidazole, glycerol-2-phosphate, BSA) and 10 μL of test compounds for 10 min at RT.
# 5) Add 30 μL reaction mixture without or with substrate to BTK and compounds.
# 6) Incubate 50 μL total assay mix for 30 min at 30° C.
# 7) Transfer 40 μL of assay to 150 μL bead slurry in filter plate to stop reaction.
# 8) Wash filter plate after 30 min, with following steps • a. 3 ×250 μL NaCl • b. 3×250 μL NaCl containing 1% phosphoric acid • c. 1×250 μL H2O
# 9) Dry plate for 1 h at 65° C. or overnight at RT
# 10) Add 50 μL microscint-20 and count ^33P cpm on scintillation counter.
# Calculate percent activity from raw data in cpm percent activity=(sample−bkg)/(total activity−bkg)×100
# [2] = molecular target: T2, Spleen Tyrosine Kinase (SYK) aa 360-635 (Homo sapiens, UniProt P43405); test: Determination of IC50 of Spleen Tyrosine Kinase (SYK) inhibition, 33P kinase assay; type: biochemical; details: recombinant human SYK360-635, 20 μM ATP
# T2 construct: truncated construct of Spleen Tyrosine Kinase aa 360-635; made in house
# Experimental: Determination of IC50 of Spleen Tyrosine Kinase (SYK) Inhibition
# The SYK kinase assay is a standard kinase assay adapted to a 96 well plate format. This assay is performed in 96-well format for IC50 determination with 8 samples which represented 10 half log dilutions and a 40 μL reaction volume. The assay measures the incorporation of radiolabeled ^33P γATP into an N-terminally biotinylated peptide substrate, derived from naturally occurring phosphoacceptor consensus sequence (Biotin-11aa DY*E). Phosphorylated products were detected upon termination of reactions with EDTA and the addition of Streptavidin coated beads. • Assay plates: 96-well MultiScreen 0.65 um filter plates (Millipore Cat. No.: MADVNOB10) • Streptavidin coated beads: Streptavidin Sepharose TM, suspension 5.0 mL, in 50 mM EDTA/PBS diluted (1:100), (Amersham, Cat. No.: 17-5113-01) • Compounds: 10 mM in 100% dimethylsulfoxide (DMSO), final conc.: compound 0.003-100 uM in 10% DMSO • Enzyme: SYK RPA purified, truncated construct of Spleen Tyrosine Kinase aa 360-635, stock solution 1 mg/mL, MW: 31.2 KDa, final conc.:0.0005 μM. • Peptide 1: biotinylated peptide is derived from a naturally occurring phosphor-acceptor consensus sequence (Biotin-[…]), special order from QCB, stock solution 20 mM, final conc.: 5.0 μM. • ATP: Adenosine-5′-triphosphate 20 mM, (ROCHE Cat. No.:93202720), final concentration: 20 μM • Buffer: HEPES: 2-Hydroxyethyl piperazine-2-ethanesulfonic acid (Sigma, Cat. No.: H-3375) final concentration: 50 mM HEPES pH7.5 • BSA: Bovine Serum Albumin Fraction V, fatty acid free (Roche Diagnostics GmbH, Cat. No. 9100221) diluted to a final concentration of 0.1% • EDTA: EDTA stock solution 500 mM, (GIBCO, Cat. No.: 15575-038) final concentration: 0.1 mM • DTT: 1,4-Dithiothreitol (Roche Diagnostics GmbH, Cat. No.: 197777), final conc.: 1 mM • MgCl2×6H2O: MERCK, Cat. No.: 105833.1000, final concentration: 10 mM • Assay Dilution Buffer (ADB): 50 mM HEPES, 0.1 mM EGTA, 0.1 mM Na Vanadate, 0.1 mM β-glycerophosphate, 10 mM MgCl2, 1 mM DTT, 0,1% BSA, pH 7.5 • Bead wash buffer: 10 g/L PBS (Phosphate buffered saline) with 2M NaCl+1% phosphoric acid Experimental Method:
# In 40 μL volume, 26 μL of ADB diluted, purified recombinant human SYK360-635 [0.5 nM] was mixed with 4 μL of 10× concentrations of the test compounds, [usually 100 μM-0.003 μM] in [10%] DMSO and the mixture was incubated for 10 min at RT.
# The kinase reaction was initiated by the addition of 10 μL 4× substrate cocktail containing the DYE peptide substrate [0 or 5 μM], ATP [20 μM] and […] [2 μCi/rxn]. After incubation at 30° C. for 15 min, the reaction was terminated by the transfer of 25 μL of the reaction sample to a 96 well 0.65 um Millipore MADVNOB membrane/plate containing 200 μL 5 mM EDTA and 20% Streptavidine coated beads in PBS.
# The unbound radionucleotides were washed under vacuum with 3×250 μL 2M NaCl; 2×250 μL 2M NaCl+1% phosphoric acid; 1×250 μL H2O. After the last wash membrane/plates were transferred to an adaptor plate, heat dried for 15 min at 60° C., and 50 μL scintillation cocktail was added to each well and 4 h later the amount of radioactivity was counted in a top counter.
# The IC50 was calculated using a non-linear curve fit with XLfit software (ID Business Solution Ltd., Guilford, Surrey, UK). […] Representative results are in Table 1.
# T1 sequence (Q06187 whole entry): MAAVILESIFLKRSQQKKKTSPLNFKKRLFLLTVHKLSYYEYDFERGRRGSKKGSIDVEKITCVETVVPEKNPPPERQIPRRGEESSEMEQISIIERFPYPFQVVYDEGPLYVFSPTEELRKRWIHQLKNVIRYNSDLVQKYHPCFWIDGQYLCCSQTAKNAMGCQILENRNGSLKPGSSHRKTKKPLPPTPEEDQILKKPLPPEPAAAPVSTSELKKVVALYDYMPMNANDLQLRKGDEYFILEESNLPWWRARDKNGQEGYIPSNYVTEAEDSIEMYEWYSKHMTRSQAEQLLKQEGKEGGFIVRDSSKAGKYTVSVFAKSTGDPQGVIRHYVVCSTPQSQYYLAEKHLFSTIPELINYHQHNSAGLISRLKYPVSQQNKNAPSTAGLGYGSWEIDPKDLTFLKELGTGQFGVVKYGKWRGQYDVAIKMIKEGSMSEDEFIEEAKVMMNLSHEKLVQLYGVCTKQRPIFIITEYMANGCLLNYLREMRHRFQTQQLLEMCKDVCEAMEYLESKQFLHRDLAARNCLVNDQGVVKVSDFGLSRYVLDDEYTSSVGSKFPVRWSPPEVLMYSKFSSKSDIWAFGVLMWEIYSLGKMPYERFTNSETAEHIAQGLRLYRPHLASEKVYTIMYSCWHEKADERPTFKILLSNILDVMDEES
SMILES,IC50 [1] [µM],IC50 ([2]; read-out: IC50 (μM) SYK Assay) [µM],IC50 ([2]; IC50 (μM) SYK Assay)
"Cc1cc(Nc2nn(C(C)C)c(=O)c3cc(F)ccc23)n[nH]1 [Example E-2, 7-Fluoro-2-isopropyl-4-(5-methyl-1H-pyrazol-3-ylamino)-2H-phthalazin-1-one]",9.53,7.61,
"Cc1cc(Nc2nn(C(C)C)c(=O)c3ccc(F)cc23)n[nH]1 [Example E-3, 6-Fluoro-2-isopropyl-4-(5-methyl-1H-pyrazol-3-ylamino)-2H-phthalazin-1-one]",58.2,87.5,
"Cc1cc(Nc2nn(CC(=O)c3ccccc3)c(=O)c3ccccc23)n[nH]1 [Example E-9, 4-(5-methyl-1H-pyrazol-3-ylamino)-2-(2-oxo-2-phenyl-ethyl)-2H-phthalazin-1-one]",10.4,7.67,
"Cc1cc(Nc2nn(C(C)C)c(=O)c3ccc(N4CCOCC4)cc23)n[nH]1 [Example F-2, 2-Isopropyl-4-(5-methyl-1H-pyrazol-3-ylamino)-6-morpholino-2H-phthalazin-1-one]",> 100,36.4,
"Cc1cc(Nc2nn(C(C)C)c(=O)c3ccc(N(C)C)cc23)n[nH]1 [Example F-7, 2-Isopropyl-4-(5-methyl-1H-pyrazol-3-ylamino)-6-dimethylamino-2H-phthalazin-1-one]",14.6,37.4,
"Cc1cc(Nc2nn(C(C)C)c(=O)c3cc(N4CCCCC4)ccc23)n[nH]1 [Example F-10, 2-Isopropyl-4-(5-methyl-1H-pyrazol-3-ylamino)-7-piperidin-1-yl-2H-phthalazin-1-one]",0.608,,0.551 µM and 4.3 µM and 3.57 µM

# Continued, in another order:
IC50 [1] [µM],IC50 ([2]; read-out: IC50 (μM) SYK Assay) [µM],SMILES,IC50 ([2]; IC50 (μM) SYK Assay)
0.724,0.793,"COc1ccc2c(Nc3cc(C)[nH]n3)nn(C(C)C)c(=O)c2c1 [Example G-1, 2-Isopropyl-4-(5-methyl-1H-pyrazol-3-ylamino)-7-methoxy-2H-phthalazin-1-one]",
1.28,2.52,"Cc1cc(Nc2nn(C(C)C)c(=O)c3cc(O)ccc23)n[nH]1 [Example G-6, 7-Hydroxy-2-isopropyl-4-(5-methyl-1H-pyrazol-3-yl-amino)-2H-phthalazin-1-one]",
4.32,1.57,"CSc1ccc2c(Nc3cc(C)[nH]n3)nn(C(C)C)c(=O)c2c1 [Example H-1, 2-Isopropyl-4-(5-methyl-1H-pyrazol-3-ylamino)-7-methylsulfanyl-2H-phthalazin-1-one]",
1.11,4.29,"Cc1cc(Nc2nn(C(C)C)c(=O)c3cc(S(C)(=O)=O)ccc23)n[nH]1 [Example H-2, 2-Isopropyl-7-methanesulfonyl-4-(5-methyl-1H-pyrazol-3-ylamino)-2H-phthalazin-1-one]",
0.231,0.392,"Cc1cc(Nc2nn(C(C)C)c(=O)c3cc(N(C)Cc4ccncc4)ccc23)n[nH]1 [Example I-2, 2-Isopropyl-4-(5-methyl-1H-pyrazol-3-ylamino)-7-(methyl-pyridin-4-ylmethyl-amino)-2H-phthalazin-1-one]",
2.23,5.62,"CC(=O)Nc1ccc2c(Nc3cc(C)[nH]n3)nn(C(C)C)c(=O)c2c1 [Example I-8, N-[3-Isopropyl-1-(5-methyl-1H-pyrazol-3-ylamino)-4-oxo-3,4-dihydro-phthalazin-6-yl]-acetamide]",
0.769,2.16,"Cc1cc(Nc2nn(C(C)C)c(=O)c3cc(C(=O)NC(C)C)ccc23)n[nH]1 [Example M-5, 3-Isopropyl-1-(5-methyl-1H-pyrazol-3-ylamino)-4-oxo-3,4-dihydro-phthalazine-6-carboxylic acid isopropylamide]",
67.7,9.99,"Cc1cc(Nc2nn(C(C)C)c(=O)c3cc(C(=O)OCC4CC4)ccc23)n[nH]1 [Example M-6, 3-Isopropyl-1-(5-methyl-1H-pyrazol-3-ylamino)-4-oxo-3,4-dihydro-phthalazine-6-carboxylic acid cyclopropylmethyl ester]",
0.782,0.666,"Cc1cc(Nc2nn(C(C)C)c(=O)c3cc(CO)ccc23)[nH]n1 [Example M-9, 7-Hydroxymethyl-2-isopropyl-4-(5-methyl-1H-pyrazol-3-ylamino)-2H-phthalazin-1-one]",
0.86,3.02,"Cc1cc(Nc2nn(C(C)C)c(=O)c3cc(OCCCS(=O)(=O)N(C)C)ccc23)n[nH]1 [Example ZD-3, 3-[3-Isopropyl-1-(5-methyl-1H-pyrazol-3-ylamino)-4-oxo-3,4-dihydro-phthalazin-6-yloxy]-propane-1-sulfonic acid dimethylamide]",
0.44,0.894,"Cc1cc(Nc2nn(C(C)C)c(=O)c3cc(CS(C)(=O)=O)ccc23)n[nH]1 [Example ZI-2, 2-Isopropyl-7-methanesulfonylmethyl-4-(5-methyl-1H-pyrazol-3-yl-amino)-2H-phthalazin-1-one]",
